Laboratory results from patent US8906962B2, “Compositions and methods for treating hair loss using non-naturally occurring prostaglandins” (Duke University, priority 2000, dated 2014).

Experiments:
hFP = biological target: T1, hFP (Homo sapiens, UniProt P43088); experiment: Radioligand Binding Assay (competition with (3H) PGF2 on hFP membranes); conditions: relative to PGF2α, hFP membranes from transfected COS-7 cells
T1 construct: expressed in transfected cells; host or cells: COS-7 cells, transient transfection with LipofectAMINE; membranes prepared
T1 sequence (P43088 whole entry): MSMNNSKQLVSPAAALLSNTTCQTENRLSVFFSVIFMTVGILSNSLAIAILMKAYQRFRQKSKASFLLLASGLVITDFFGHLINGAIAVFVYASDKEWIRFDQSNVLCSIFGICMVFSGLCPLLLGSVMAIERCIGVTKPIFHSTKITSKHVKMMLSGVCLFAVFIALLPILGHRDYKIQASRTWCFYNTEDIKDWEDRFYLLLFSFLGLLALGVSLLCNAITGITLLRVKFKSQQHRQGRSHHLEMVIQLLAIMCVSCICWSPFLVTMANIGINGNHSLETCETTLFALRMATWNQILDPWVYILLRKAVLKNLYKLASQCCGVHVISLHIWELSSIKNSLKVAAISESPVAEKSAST
Experimental: IC50 of a PGF can be determined relative to PGF2α using the Radioligand Binding Assay. As a control, the IC50 for PGF2α itself should be no lower than 1.0 nM and no higher than 5.0 nM.
In this assay, COS-7 cells are transiently transfected with the hFP recombinant plasmid using LipofectAMINE Reagent. Forty-eight hours later, the tranfected cells are washed with Hank's Balanced Salt Solution (HBSS, without CaCl2, MgCl2, MgSO4, or phenol red). The cells are detached with versene, and HBSS is added. The mixture is centrifuged at 200 g for 10 minutes, at 4° C. to pellet the cells. The pellet is resuspended in Phosphate-Buffered Saline-EDTA buffer (PBS; 1 mM EDTA; pH 7.4; 4° C.). The cells are disrupted by nitrogen cavitation (Parr model 4639), at 800 psi, for 15 minutes at 4° C. The mixture is centrifuged at 1000 g for 10 minutes at 4° C. The supernatant is centrifuged at 100,000 g for 60 minutes at 4° C. The pellet is resuspended to 1 mg protein/mL TME buffer (50 mM Tris; 10 mM MgCl2; 1 mM EDTA; pH 6.0; 4° C.) based on protein levels measured using the Pierce BCA Protein Assay kit. The homogenate is mixed for 10 seconds using a Kinematica POLYTRON® (available from KINEMATICA AG, Luzernerstrassel47A CH-6014 Littau, Switzerland). The membrane preparations are then stored at −80° C., until thawed for assay use.
The receptor competition binding assays are developed in a 96 well format. Each well contains […] of hFP membrane, 5 nM (3H) PGF2, and the various competing compounds in a total volume of […]. The plates are incubated at 23° C. for 1 hour. The incubation is terminated by rapid filtration using the Packard Filtermate 196 harvester through Packard UNIFILTER® GF/B filters (available from Packard Instrument Co., Inc. of Downers Grove Ill.) pre-wetted with TME buffer. The filter is washed four times with TME buffer. […] The plates are read on a Packard TOPCOUNT® Microplate Scintillation Counter (also available from Packard Instrument Co., Inc.)

C3H mice = experiment: Telogen Conversion Assay (topical, skin colour grade, hair growth); assay type: in vivo; conditions: for Grades (average animal score): day 26, visual grade 0 to 4 of skin colour (Table 4)
Experimental: PGF's are tested for their potential to grow hair using the Telogen Conversion Assay. The Telogen Conversion Assay measures the potential of a PGF to convert mice in the resting stage of the hair growth cycle (“telogen”), to the growth stage of the hair growth cycle (“anagen”).
Without intending to be limited by theory, there are three principal phases of the hair growth cycle: anagen, catagen, and telogen. It is believed that there is a longer telogen period in C3H mice (Harlan Sprague Dawley, Inc., Indianapolis, Ind.) from approximately 40 days of age until about 75 days of age, when hair growth is synchronized. It is believed that after 75 days of age, hair growth is no longer synchronized. Wherein about 40 day-old mice with dark fur (brown or black) are used in hair growth experiments, melanogenesis occurs along with hair (fur) growth wherein the topical application of hair growth inducers are evaluated. The Telogen Conversion Assay herein is used to screen PGF's for potential hair growth by measuring melanogenesis.
Three groups of 44 day-old C3H mice are used: a vehicle control group, a positive control group, and a test PGF group, wherein the test PGF group is administered a PGF used in the method of this invention. […] Day 1 is the first day of treatment. Typical dosage concentrations are set forth in Table 3, however the skilled artisan will readily understand that such concentrations may be modified.
The mice are treated topically Monday through Friday on their lower back (base of tail to the lower rib). A pipettor and tip are used to deliver 400 μL to each mouse's back. The 400 μL application is applied slowly while moving hair on the mouse to allow the application to reach the skin.
While each treatment is being applied to the mouse topically, a visual grade of from 0 to 4 will be given to the skin color in the application area of each animal. As a mouse converts from telogen to anagen, its skin color will become more bluish-black.

EP1 receptor = biological target: T2, EP1 receptor (Homo sapiens, UniProt P34995); experiment: Receptor selectivity statement (EP1 activation); conditions: stated without method; said to result in the side effect of pain
T2 sequence (P34995 1-402): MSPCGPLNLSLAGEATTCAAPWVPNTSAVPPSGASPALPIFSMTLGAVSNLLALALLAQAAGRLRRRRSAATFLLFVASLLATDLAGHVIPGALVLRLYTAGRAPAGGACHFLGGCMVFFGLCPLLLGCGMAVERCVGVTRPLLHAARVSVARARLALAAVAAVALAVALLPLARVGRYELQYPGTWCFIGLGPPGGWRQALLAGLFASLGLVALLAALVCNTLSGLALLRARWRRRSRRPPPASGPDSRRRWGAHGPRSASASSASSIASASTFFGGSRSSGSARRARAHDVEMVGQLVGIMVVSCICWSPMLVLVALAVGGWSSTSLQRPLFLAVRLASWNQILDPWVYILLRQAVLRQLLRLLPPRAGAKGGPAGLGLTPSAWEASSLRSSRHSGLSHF

Row | IC50 (hFP) [nM] | Compound | hair growth / activity (C3H mice; 0.01% topical) | Grades (average animal score) (C3H mice; 0.01%) | hair growth / activity (C3H mice; 0.1% topical) | Grades (average animal score) (C3H mice; 0.1%) | other results
1 | 19 | O=C(O)CCCCCC[C@@H]1[C@@H](CCC(O)C#Cc2ccccc2F)[C@H](O)C[C@@H]1O (some centres unmarked) [Example 3-1] |  |  |  |  | 
2 | 27 | O=C(O)CCCCCC[C@@H]1[C@@H](CCC(O)c2cc3ccccc3s2)[C@H](O)C[C@@H]1O (some centres unmarked) [Example 3-2] |  |  |  |  | 

The remaining lines, values behind:

Row | Compound | IC50 (hFP) [nM] | hair growth / activity (C3H mice; 0.01% topical) | Grades (average animal score) (C3H mice; 0.01%) | hair growth / activity (C3H mice; 0.1% topical) | Grades (average animal score) (C3H mice; 0.1%) | other results
3 | O=C(O)CCCCCC[C@@H]1[C@@H](CCC(O)c2nc3ccccc3s2)[C@H](O)C[C@@H]1O (stereo partly drawn) [13,14-dihydro-15-(2-benzathiozolyl)pentanor Prostaglandin F1α] | 45 |  |  |  |  | hair growth (C3H mice; concentration not given): grew hair
4 | COC(=O)CCC/C=C\C[C@@H]1[C@@H](/C=C/[C@@H](O)COc2cccc(C(F)(F)F)c2)[C@H](O)C[C@@H]1O [Fluprostenol Methyl Ester] |  | grew hair | 3.9 | grew hair | 2.6 | 
5 | N[C@@H](Cc1cc(I)c(Oc2ccc(O)c(I)c2)c(I)c1)C(=O)O [T3 compound, 3,5,3′-triiodothyronine, reference compound] |  | grew hair |  |  |  | 
6 | Latanoprost [reference compound] |  | active | 0.71 | active | 2.9 | activation of EP1 receptor (nonselective) (EP1 receptor): activates the EP1 receptor
